The nature of one series: solubility. Type of series: physicochemical. The following applies: for solubility of the acetate: acetate of the peptide; for solubility of the trichloracetate: trichloracetate of the peptide.
Series [1] is described as follows: stability towards mild oxidation with performic acid. Type of series: physicochemical. As to the method: b. 80 g of Bio-gel P6 are allowed to swell overnight in 0.1N-formic acid, then filled into a chromatography tube (internal diameter 2.5 cm) up to a height of 94 cm (when it has settled; total volume of the gel bed, 460 ml). 600 mg of the crude product obtained as described under (a) above are dissolved in 20 ml of 0.1N-formic acid, the solution poured on to the gel column, and eluted with 0.1N-formic acid. The eluate is passed through a recording UV percolation photometer (254 nm) and collected in fractions of 15 ml each. The eluates are analyzed by thin-layer chromatography over Sephadex G 25 (superfine) (registered Trade Mark) in 0.1N-formic acid (with chlorine/tolidine reagent), and tested biologically. The maximum activity is found in an eluate volume corresponding to 0.8 column volume. The fractions are lyophilized individually and yield 70% of the total activity; the best fractions have an activity of 40 MRC units/mg. The molecular weight of these active substances is below 5000. The product can be further purified by counter-current distribution and/or gel chromatography. For this purpose, batches of 2-5 g of the enriched material are subjected to counter-current distribution over 250-300 stages in the system n-butanol:methanol:0.1N-acetic acid (4:1:5). […]

Positions of bridges follow the written chain, without caps; N, C: chain ends. Non-standard residues stand in square brackets, D forms with d. Residues, ends and D or L forms follow the SMILES beside them. Met(O) = CS(=O)CC[C@H](N)C(=O)O

Take `CSCC[C@H](NC(=O)CNC(=O)[C@H](CO)NC(=O)[C@H](Cc1ccccc1)NC(=O)[C@H](CCCNC(=N)N)NC(=O)[C@H](Cc1c[nH]cn1)NC(=O)[C@H](Cc1ccccc1)NC(=O)[C@H](CC(N)=O)NC(=O)[C@H](CC(N)=O)NC(=O)[C@H](CC(C)C)NC(=O)[C@H](CC(N)=O)NC(=O)[C@H](CCCNC(=N)N)NC(=O)[C@H](Cc1c[nH]c2ccccc12)NC(=O)[C@H](Cc1ccc(O)cc1)NC(=O)[C@H](C)NC(=O)[C@H](CO)NC(=O)[C@H](CC(C)C)NC(=O)[C@@H](NC(=O)[C@@H]1CSSC[C@H](N)C(=O)N[C@@H](CO)C(=O)N[C@@H](CC(N)=O)C(=O)N[C@@H](CC(C)C)C(=O)N[C@@H](CO)C(=O)N[C@@H]([C@@H](C)O)C(=O)N1)C(C)C)C(=O)NCC(=O)N[C@@H](Cc1ccccc1)C(=O)NCC(=O)N1CCC[C@H]1C(=O)N[C@@H](CCC(=O)O)C(=O)N[C@H](C(=O)N1CCC[C@H]1C(N)=O)[C@@H](C)O` [α-thyrocalcitonin] (H-CSNLSTCVLSAYWRNLNNFHRFSGMGFGPETP-NH2; disulfide 1-7): in “solubility”, the “solubility of the acetate” value is reported as “readily soluble” and the “solubility of the trichloracetate” value is listed as “rather sparingly soluble”. In series [1], the “stability towards mild oxidation with performic acid” value is recorded as “becomes a more polar product”.
The like results for `CC(C)C[C@H](NC(=O)[C@H](CC(N)=O)NC(=O)[C@H](CCCNC(=N)N)NC(=O)[C@H](Cc1c[nH]c2ccccc12)NC(=O)[C@H](Cc1ccc(O)cc1)NC(=O)[C@H](C)NC(=O)[C@H](CO)NC(=O)[C@H](CC(C)C)NC(=O)[C@@H](NC(=O)[C@@H]1CSSC[C@H](N)C(=O)N[C@@H](CO)C(=O)N[C@@H](CC(N)=O)C(=O)N[C@@H](CC(C)C)C(=O)N[C@@H](CO)C(=O)N[C@@H]([C@@H](C)O)C(=O)N1)C(C)C)C(=O)N[C@@H](CC(N)=O)C(=O)N[C@@H](CC(N)=O)C(=O)N[C@@H](Cc1ccccc1)C(=O)N[C@@H](Cc1c[nH]cn1)C(=O)N[C@@H](CCCNC(=N)N)C(=O)N[C@@H](Cc1ccccc1)C(=O)N[C@@H](CO)C(=O)NCC(=O)N[C@@H](CC[S+](C)[O-])C(=O)NCC(=O)N[C@@H](Cc1ccccc1)C(=O)NCC(=O)N1CCC[C@H]1C(=O)N[C@@H](CCC(=O)O)C(=O)N[C@H](C(=O)N1CCC[C@H]1C(N)=O)[C@@H](C)O` (stereo partly drawn) [β-thyrocalcitonin] (H-CSNLSTCVLSAYWRNLNNFHRFSG[Met(O)]GFGPETP-NH2; disulfide 1-7) were, in that order, “readily soluble”, “rather sparingly soluble” and “stable”.

The record behind these values is US4041022A, “Process for the manufacture of thyrocalcitonin” (Ciba-Geigy Corporation, priority 1967, dated 1977).
